Experimental data from US6348468B1, “Pyridazine compounds and compositions containing the same” (Kowa Co., Ltd., priority 1997, dated 2002).

Key:
[1] = test system: Interleukin-1β (IL-1β) Production; experiment: Inhibitory activity against interleukin-1β production (LPS-stimulated HL-60 cells, ELISA); type: cell-based; conditions: Homo sapiens, 72 h, lipopolysaccharide 10 μg/ml, culturing for 3 days
Description: HL-60 cells were cultured for 4 days until confluence on RPMI 1640 medium with 10% fetal bovine serum (FBS) added thereto. The HL-60 cells were centrifuged. The supernatant was discarded, and the cells were then suspended at 1×10^6 cells/ml on RPMI 1640 medium with 3% FBS, and lipopolysaccharide was added to give a final concentration of 10 μg/ml. The culture was inoculated at 1 ml/well to a 24-well plate. A test sample was added at 1 μl/well, followed by culturing for 3 days. Three days later, the amount of interleukin-1β in each of the cultures was measured by ELISA. Its IC50 value was determined by a comparison in yield with a control to which no test sample was added.

Structure (SMILES)	IC50 [1] [nM]	melting point [°C]
COc1ccc(-c2cc(=O)n(CCN(C)C)nc2-c2ccc(OC)cc2)cc1 [Comp. Comp'd 3, reference compound]	> 100000	
COc1ccc(-c2cc(=O)[nH]nc2-c2ccc(OC)cc2)cc1 [Comp. Comp'd 4, reference compound]	31600	
COc1ccc(-c2cc(=O)n(CC=Cc3ccc(Cl)cc3)nc2-c2ccc(OC)cc2)cc1 [Example 12, 5,6-bis(4-methoxyphenyl)-2-(4-chlorocinnamyl)-2H-pyridazin-3-one]	100	
COc1ccc(-c2cc(=O)n(Cc3ccccc3)nc2-c2ccc(OC)cc2)cc1 [Example 13, 5,6-bis(4-methoxyphenyl)-2-benzyl-2H-pyridazin-3-one]	260	
COc1ccc(Cn2nc(-c3ccc(OC)cc3)c(-c3ccc(OC)cc3)cc2=O)cc1 [Example 14, 5,6-bis(4-methoxyphenyl)-2-(4-methoxybenzyl)-2H-pyridazin-3-one]	94	
COc1ccc(-c2cc(=O)n(Cc3cc(OC)c(OC)c(OC)c3)nc2-c2ccc(OC)cc2)cc1 [Example 16, 5,6-bis(4-methoxyphenyl)-2-(3,4,5-trimethoxybenzyl)-2H-pyridazin-3-one]	230	
COc1ccc(-c2cc(=O)n(CCCc3ccccc3)nc2-c2ccc(OC)cc2)cc1 [Example 19, 5,6-bis(4-methoxyphenyl)-2-(3-phenylpropyl)-2H-pyridazin-3-one]	79	
COc1ccc(CCCn2nc(-c3ccc(OC)cc3)c(-c3ccc(OC)cc3)cc2=O)cc1 [Example 23, 5,6-bis(4-methoxyphenyl)-2-[3-(4-methoxyphenyl)propyl]-2H-pyridazin-3-one]	360	
COc1ccc(-c2cc(=O)n(CC=Cc3ccc(C)cc3)nc2-c2ccc(OC)cc2)cc1 [Example 24, 5,6-bis(4-methoxyphenyl)-2-(4-methylcinnamyl)-2H-pyridazin-3-one]	200	
COc1ccc(-c2cc(=O)n(CCCc3ccc(C)cc3)nc2-c2ccc(OC)cc2)cc1 [Example 25, 5,6-bis(4-methoxyphenyl)-2-[3-(4-methylphenyl)propyl]-2H-pyridazin-3-one]	180	
COc1ccc(-c2cc(=O)n(Cc3ccc(F)cc3)nc2-c2ccc(OC)cc2)cc1 [Example 26, 5,6-bis(4-methoxyphenyl)-2-(4-fluorobenzyl)-2H-pyridazin-3-one]	150	
COc1ccc(-c2cc(=O)n(Cc3ccc(F)cc3F)nc2-c2ccc(OC)cc2)cc1 [Example 27, 5,6-bis(4-methoxyphenyl)-2-(2,4-difluorobenzyl)-2H-pyridazin-3-one]	180	
CSc1ccc(-c2nn(Cc3ccc(Cl)cc3Cl)c(=S)cc2-c2ccc(F)cc2)cc1 [Example 141, 2-(2,4-dichlorobenzyl)-5-(4-fluorophenyl)-6-[4-(methylthio)phenyl]-2H-pyridazine-3-thione]		154 to 154.2
COc1ccc(-c2cc(=O)n(Cc3ccccc3)nc2-c2ccc(OC)c(F)c2)cc1 [Example 144, 2-benzyl-6-(3-fluoro-4-methoxyphenyl)-5-(4-methoxyphenyl)-2H-pyridazin-3-one]		136.6 to 137.8
COc1ccc(-c2cc(=O)n(CC=Cc3ccc(Cl)cc3)nc2-c2ccc(OC)c(F)c2)cc1 [Example 145, 2-(4-chlorocinnamyl)-6-(3-fluoro-4-methoxyphenyl)-5-(4-methoxyphenyl)-2H-pyridazin-3-one]		144 to 145.4
CCn1nc(-c2ccc(OC)c(F)c2)c(-c2ccc(OC)cc2)cc1=O [Example 146, 2-ethyl-6-(3-fluoro-4-methoxyphenyl)-5-(4-methoxyphenyl)-2H-pyridazin-3-one]		122.6 to 123.5
COc1ccc(-c2cc(=O)n(CC(C)C)nc2-c2ccc(OC)c(F)c2)cc1 [Example 147, 6-(3-fluoro-4-methoxyphenyl)-2-isobutyl-5-(4-methoxyphenyl)-2H-pyridazin-3-one]		86.8 to 87.4

More lines, now with the values ahead:

IC50 [1] [nM]	melting point [°C]	Structure (SMILES)
	132.2 to 132.6	COc1ccc(-c2cc(=O)n(CC3CC3)nc2-c2ccc(OC)c(F)c2)cc1 [Example 148, 2-cyclopropylmethyl-6-(3-fluoro-4-methoxyphenyl)-5-(4-methoxyphenyl)-2H-pyridazin-3-one]
	171.2 to 173.4	COc1ccc(C2=NNC(=O)CC2c2ccc(OC)c(F)c2)cc1 (stereo not shown) [Example 149, 4,5-dihydro-5-(3-fluoro-4-methoxyphenyl)-6-(4-methoxyphenyl)-2H-pyridazin-3-one]
	212.8 to 213.4	COc1ccc(-c2n[nH]c(=O)cc2-c2ccc(OC)c(F)c2)cc1 [Example 150, 5-(3-fluoro-4-methoxyphenyl)-6-(4-methoxyphenyl)-2H-pyridazin-3-one]
	109.6 to 111.6	COc1ccc(-c2nn(Cc3ccccc3)c(=O)cc2-c2ccc(OC)c(F)c2)cc1 [Example 151, 2-benzyl-5-(3-fluoro-4-methoxyphenyl)-6-(4-methoxyphenyl)-2H-pyridazin-3-one]
	109.2 to 111	COc1ccc(-c2nn(CC=Cc3ccc(Cl)cc3)c(=O)cc2-c2ccc(OC)c(F)c2)cc1 [Example 152, 2-(4-chlorocinnamyl)-5-(3-fluoro-4-methoxyphenyl)-6-(4-methoxyphenyl)-2H-pyridazin-3-one]
	161.7 to 162.2	CCn1nc(-c2ccc(OC)cc2)c(-c2ccc(OC)c(F)c2)cc1=O [Example 153, 2-ethyl-5-(3-fluoro-4-methoxyphenyl)-6-(4-methoxyphenyl)-2H-pyridazin-3-one]
	124.6 to 125	COc1ccc(-c2nn(CC(C)C)c(=O)cc2-c2ccc(OC)c(F)c2)cc1 [Example 154, 5-(3-fluoro-4-methoxyphenyl)-2-isobutyl-6-(4-methoxyphenyl)-2H-pyridazin-3-one]
	135.2 to 135.7	COc1ccc(-c2nn(CC3CC3)c(=O)cc2-c2ccc(OC)c(F)c2)cc1 [Example 155, 2-cyclopropylmethyl-5-(3-fluoro-4-methoxyphenyl)-6-(4-methoxyphenyl)-2H-pyridazin-3-one]
	195.7 to 197.7	COc1ccc(C2=NNC(=O)CC2c2ccc(OC)c(F)c2)cc1F (stereo not shown) [Example 156, 5,6-bis(3-fluoro-4-methoxyphenyl)-4,5-dihydro-2H-pyridazin-3-one]
	204.8 to 205.7	COc1ccc(-c2cc(=O)[nH]nc2-c2ccc(OC)c(F)c2)cc1F [Example 157, 5,6-bis(3-fluoro-4-methoxyphenyl)-2H-pyridazin-3-one]
	114.1 to 115.2	COc1ccc(-c2cc(=O)n(Cc3ccccc3)nc2-c2ccc(OC)c(F)c2)cc1F [Example 158, 2-benzyl-5,6-bis(3-fluoro-4-methoxyphenyl)-2H-pyridazin-3-one]
	72.5 to 74.9	COc1ccc(-c2cc(=O)n(CC=Cc3ccc(Cl)cc3)nc2-c2ccc(OC)c(F)c2)cc1F [Example 159, 5,6-bis(3-fluoro-4-methoxyphenyl)-2-(4-chlorocinnamyl)-2H-pyridazin-3-one]
	154 to 154.5	COc1ccc(-c2cc(=O)n(CC(C)C)nc2-c2ccc(OC)c(F)c2)cc1F [Example 161, 5,6-bis(3-fluoro-4-methoxyphenyl)-2-isobutyl-2H-pyridazin-3-one]
	142.3 to 142.7	COc1ccc(-c2cc(=O)n(CC3CC3)nc2-c2ccc(OC)c(F)c2)cc1F [Example 162, 5,6-bis(3-fluoro-4-methoxyphenyl)-2-cyclopropylmethyl-2H-pyridazin-3-one]
